Earlier results on one compound are cited in US8138216B2, “Cannabinoid receptor antagonists/inverse agonists useful for treating metabolic disorders, including obesity and diabetes” (Jenrin Discovery, Inc., priority 2007, dated 2012).

The test system of this data set is patients with type 2 diabetes. The following applies: after six months of treatment; baseline value 7.9; patients not treated with other anti-diabetic medications; placebo 0.3%.

In the case of `Cc1c(C(=O)NN2CCCCC2)nn(-c2ccc(Cl)cc2Cl)c1-c1ccc(Cl)cc1` [rimonabant], the HbA1c levels lowered is reported as 0.8%.
